Patent publication US5416191A, “Bradykinin antagonists” (Cortech, Inc., priority 1993, dated 1995)
Read-outs that look alike come from different tables or passages of the source. Square brackets hold non-standard residues; d marks the D form. Peptide text beside a SMILES is read from it. * marks the point of attachment. Hyp = O=C(O)[C@@H]1C[C@@H](O)CN1; X19 = CCCCCCNC(=O)C*

Biological target: T1, bradykinin receptor of the B2 class (rat uterus) (Rattus norvegicus, UniProt P25023)
T1 construct: concentration effect curves to bradykinin (BK) on rat uterus in vitro; from tissue; host or cells: rat uterus
T1 sequence (P25023 1-396): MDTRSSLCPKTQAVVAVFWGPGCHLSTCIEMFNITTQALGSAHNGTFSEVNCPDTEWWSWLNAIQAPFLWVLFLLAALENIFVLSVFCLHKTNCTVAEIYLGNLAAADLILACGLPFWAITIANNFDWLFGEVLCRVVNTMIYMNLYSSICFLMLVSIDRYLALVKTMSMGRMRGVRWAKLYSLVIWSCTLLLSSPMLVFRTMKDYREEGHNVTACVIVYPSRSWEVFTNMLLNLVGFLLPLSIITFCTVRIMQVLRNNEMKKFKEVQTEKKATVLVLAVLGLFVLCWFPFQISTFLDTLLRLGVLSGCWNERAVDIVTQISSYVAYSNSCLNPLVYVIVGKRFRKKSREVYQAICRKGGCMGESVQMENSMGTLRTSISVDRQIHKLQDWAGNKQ
Test: Rat uterus (RU) in vitro, antagonism of bradykinin
Settings: for % RECOVERY: rat uterus
Protocol: Thus in vitro studies were performed on standard assay systems, namely, guinea-pig ileum (GPI), rat uterus (RU) and rabbit jugular vein (RJV). […] The PA2 can be defined as the negative logarithm of the molar concentration of the antagonist in the presence of which the potency of the agonist is reduced two-fold, i.e. twice the amount of agonist is required to produce a given response in the presence of, than in the absence of, the antagonist. A high potency of antagonism is indicated by a high PA2 value, i.e., a low concentration of antagonist is effective.
The percentage recovery (% Rec) was also determined for compounds with respect to each assay.
With respect to duration of activity, it is noted that after exposure to the highest concentration of antagonist, each tissue was washed extensively and then assessed for recovery from the antagonist effect.
Potency in the rat uterus assay was assessed as described above and PA2 values determined.

[1] = Table D, effect of linker length, read-out: pA2 (UTERUS) (converted)

SMILES	% REC (40 MIN) (Table D)	Kb [1]	further results
CC(C)C[C@H](NC(=O)[C@@H](Cc1ccccc1)NC(=O)[C@H](CSC1CC(=O)N(CCN2C(=O)CC(SC[C@H](NC(=O)[C@H](Cc3ccccc3)NC(=O)CNC(=O)[C@@H]3C[C@@H](O)CN3C(=O)[C@@H]3CCCN3C(=O)[C@H](CCCNC(=N)N)NC(=O)[C@H](N)CCCNC(=N)N)C(=O)N[C@H](Cc3ccccc3)C(=O)N[C@@H](CC(C)C)C(=O)N[C@@H](CCCNC(=N)N)C(=O)O)C2=O)C1=O)NC(=O)[C@H](Cc1ccccc1)NC(=O)CNC(=O)[C@@H]1C[C@@H](O)CN1C(=O)[C@@H]1CCCN1C(=O)[C@H](CCCNC(=N)N)NC(=O)[C@H](N)CCCNC(=N)N)C(=O)N[C@@H](CCCNC(=N)N)C(=O)O (stereo partly drawn) [CP-0162] (HELM PEPTIDE1{[dR].R.P.[Hyp].G.F.C.[dF].L.R}|PEPTIDE2{[dR].R.P.[Hyp].G.F.C.[dF].L.R}|CHEM1{[O=C1CC([*:1])C(=O)N1CCN1C(=O)CC([*:2])C1=O]}$PEPTIDE1,CHEM1,7:R3-1:R1|PEPTIDE2,CHEM1,7:R3-1:R2$$$V2.0)	90%	5.01 nM	–
CC(C)C[C@H](NC(=O)[C@@H](Cc1ccccc1)NC(=O)[C@H](CSC1CC(=O)N(CCCCCCCCCCCCN2C(=O)CC(SC[C@H](NC(=O)[C@H](Cc3ccccc3)NC(=O)CNC(=O)[C@@H]3C[C@@H](O)CN3C(=O)[C@@H]3CCCN3C(=O)[C@H](CCCNC(=N)N)NC(=O)[C@H](N)CCCNC(=N)N)C(=O)N[C@H](Cc3ccccc3)C(=O)N[C@@H](CC(C)C)C(=O)N[C@@H](CCCNC(=N)N)C(=O)O)C2=O)C1=O)NC(=O)[C@H](Cc1ccccc1)NC(=O)CNC(=O)[C@@H]1C[C@@H](O)CN1C(=O)[C@@H]1CCCN1C(=O)[C@H](CCCNC(=N)N)NC(=O)[C@H](N)CCCNC(=N)N)C(=O)N[C@@H](CCCNC(=N)N)C(=O)O (stereo partly drawn) [CP-0166] (HELM PEPTIDE1{[dR].R.P.[Hyp].G.F.C.[dF].L.R}|PEPTIDE2{[dR].R.P.[Hyp].G.F.C.[dF].L.R}|CHEM1{[O=C1CC([*:1])C(=O)N1CCCCCCCCCCCCN1C(=O)CC([*:2])C1=O]}$PEPTIDE1,CHEM1,7:R3-1:R1|PEPTIDE2,CHEM1,7:R3-1:R2$$$V2.0)	0%	6.31 nM	–
CC(C)C[C@H](NC(=O)[C@@H](Cc1ccccc1)NC(=O)[C@H](CSC1CC(=O)N(CCCN2C(=O)CC(SC[C@H](NC(=O)[C@H](Cc3ccccc3)NC(=O)CNC(=O)[C@@H]3C[C@@H](O)CN3C(=O)[C@@H]3CCCN3C(=O)[C@H](CCCNC(=N)N)NC(=O)[C@H](N)CCCNC(=N)N)C(=O)N[C@H](Cc3ccccc3)C(=O)N[C@@H](CC(C)C)C(=O)N[C@@H](CCCNC(=N)N)C(=O)O)C2=O)C1=O)NC(=O)[C@H](Cc1ccccc1)NC(=O)CNC(=O)[C@@H]1C[C@@H](O)CN1C(=O)[C@@H]1CCCN1C(=O)[C@H](CCCNC(=N)N)NC(=O)[C@H](N)CCCNC(=N)N)C(=O)N[C@@H](CCCNC(=N)N)C(=O)O (stereo partly drawn) [CP-0172] (HELM PEPTIDE1{[dR].R.P.[Hyp].G.F.C.[dF].L.R}|PEPTIDE2{[dR].R.P.[Hyp].G.F.C.[dF].L.R}|CHEM1{[O=C1CC([*:1])C(=O)N1CCCN1C(=O)CC([*:2])C1=O]}$PEPTIDE1,CHEM1,7:R3-1:R1|PEPTIDE2,CHEM1,7:R3-1:R2$$$V2.0)	90%	2.51 nM	–
N=C(N)NCCC[C@@H](N)C(=O)N[C@@H](CCCNC(=N)N)C(=O)N1CCC[C@H]1C(=O)N1C[C@H](O)C[C@H]1C(=O)NCC(=O)N[C@@H](Cc1ccccc1)C(=O)N[C@@H](CO)C(=O)N[C@H](Cc1ccccc1)C(=O)N[C@@H](Cc1ccccc1)C(=O)N[C@@H](CCCNC(=N)N)C(=O)O [CP-0181, DArg^0 -Arg^1 -Pro^2 -Hyp^3 -Gly^4 -Phe^5 -Ser^6 -DPhe^7 -Phe^8 -Arg^9, reference compound]	–	–	% RECOVERY (Table F): 100%; Kb (Table F, read-out: RAT UTERUS pA2 (converted)): 100 nM
CC(C)C[C@H](NC(=O)[C@@H](Cc1ccccc1)NC(=O)[C@H](CSC1CC(=O)N(CCCCN2C(=O)CC(SC[C@H](NC(=O)[C@H](Cc3ccccc3)NC(=O)CNC(=O)[C@@H]3C[C@@H](O)CN3C(=O)[C@@H]3CCCN3C(=O)[C@H](CCCNC(=N)N)NC(=O)[C@H](N)CCCNC(=N)N)C(=O)N[C@H](Cc3ccccc3)C(=O)N[C@@H](CC(C)C)C(=O)N[C@@H](CCCNC(=N)N)C(=O)O)C2=O)C1=O)NC(=O)[C@H](Cc1ccccc1)NC(=O)CNC(=O)[C@@H]1C[C@@H](O)CN1C(=O)[C@@H]1CCCN1C(=O)[C@H](CCCNC(=N)N)NC(=O)[C@H](N)CCCNC(=N)N)C(=O)N[C@@H](CCCNC(=N)N)C(=O)O (stereo partly drawn) [CP-0209] (HELM PEPTIDE1{[dR].R.P.[Hyp].G.F.C.[dF].L.R}|PEPTIDE2{[dR].R.P.[Hyp].G.F.C.[dF].L.R}|CHEM1{[O=C1CC([*:1])C(=O)N1CCCCN1C(=O)CC([*:2])C1=O]}$PEPTIDE1,CHEM1,7:R3-1:R1|PEPTIDE2,CHEM1,7:R3-1:R2$$$V2.0)	50%	6.31 nM	–
CC(C)C[C@H](NC(=O)[C@@H](Cc1ccccc1)NC(=O)[C@H](CSC1CC(=O)N(CCCCCCCCN2C(=O)CC(SC[C@H](NC(=O)[C@H](Cc3ccccc3)NC(=O)CNC(=O)[C@@H]3C[C@@H](O)CN3C(=O)[C@@H]3CCCN3C(=O)[C@H](CCCNC(=N)N)NC(=O)[C@H](N)CCCNC(=N)N)C(=O)N[C@H](Cc3ccccc3)C(=O)N[C@@H](CC(C)C)C(=O)N[C@@H](CCCNC(=N)N)C(=O)O)C2=O)C1=O)NC(=O)[C@H](Cc1ccccc1)NC(=O)CNC(=O)[C@@H]1C[C@@H](O)CN1C(=O)[C@@H]1CCCN1C(=O)[C@H](CCCNC(=N)N)NC(=O)[C@H](N)CCCNC(=N)N)C(=O)N[C@@H](CCCNC(=N)N)C(=O)O (stereo partly drawn) [CP-0211] (HELM PEPTIDE1{[dR].R.P.[Hyp].G.F.C.[dF].L.R}|PEPTIDE2{[dR].R.P.[Hyp].G.F.C.[dF].L.R}|CHEM1{[O=C1CC([*:1])C(=O)N1CCCCCCCCN1C(=O)CC([*:2])C1=O]}$PEPTIDE1,CHEM1,7:R3-1:R1|PEPTIDE2,CHEM1,7:R3-1:R2$$$V2.0)	25%	3.98 nM	–
CC(C)C[C@H](NC(=O)[C@@H](Cc1ccccc1)NC(=O)[C@H](CSC1CC(=O)N(CCCCCCCCCN2C(=O)CC(SC[C@H](NC(=O)[C@H](Cc3ccccc3)NC(=O)CNC(=O)[C@@H]3C[C@@H](O)CN3C(=O)[C@@H]3CCCN3C(=O)[C@H](CCCNC(=N)N)NC(=O)[C@H](N)CCCNC(=N)N)C(=O)N[C@H](Cc3ccccc3)C(=O)N[C@@H](CC(C)C)C(=O)N[C@@H](CCCNC(=N)N)C(=O)O)C2=O)C1=O)NC(=O)[C@H](Cc1ccccc1)NC(=O)CNC(=O)[C@@H]1C[C@@H](O)CN1C(=O)[C@@H]1CCCN1C(=O)[C@H](CCCNC(=N)N)NC(=O)[C@H](N)CCCNC(=N)N)C(=O)N[C@@H](CCCNC(=N)N)C(=O)O (stereo partly drawn) [CP-0229] (HELM PEPTIDE1{[dR].R.P.[Hyp].G.F.C.[dF].L.R}|PEPTIDE2{[dR].R.P.[Hyp].G.F.C.[dF].L.R}|CHEM1{[O=C1CC([*:1])C(=O)N1CCCCCCCCCN1C(=O)CC([*:2])C1=O]}$PEPTIDE1,CHEM1,7:R3-1:R1|PEPTIDE2,CHEM1,7:R3-1:R2$$$V2.0)	0-10%	1 nM	–
CC(C)C[C@H](NC(=O)[C@@H](Cc1ccccc1)NC(=O)[C@H](CSC1CC(=O)N(CCCCCCCCCCN2C(=O)CC(SC[C@H](NC(=O)[C@H](Cc3ccccc3)NC(=O)CNC(=O)[C@@H]3C[C@@H](O)CN3C(=O)[C@@H]3CCCN3C(=O)[C@H](CCCNC(=N)N)NC(=O)[C@H](N)CCCNC(=N)N)C(=O)N[C@H](Cc3ccccc3)C(=O)N[C@@H](CC(C)C)C(=O)N[C@@H](CCCNC(=N)N)C(=O)O)C2=O)C1=O)NC(=O)[C@H](Cc1ccccc1)NC(=O)CNC(=O)[C@@H]1C[C@@H](O)CN1C(=O)[C@@H]1CCCN1C(=O)[C@H](CCCNC(=N)N)NC(=O)[C@H](N)CCCNC(=N)N)C(=O)N[C@@H](CCCNC(=N)N)C(=O)O (stereo partly drawn) [CP-0230] (HELM PEPTIDE1{[dR].R.P.[Hyp].G.F.C.[dF].L.R}|PEPTIDE2{[dR].R.P.[Hyp].G.F.C.[dF].L.R}|CHEM1{[O=C1CC([*:1])C(=O)N1CCCCCCCCCCN1C(=O)CC([*:2])C1=O]}$PEPTIDE1,CHEM1,7:R3-1:R1|PEPTIDE2,CHEM1,7:R3-1:R2$$$V2.0)	0%	3.98 nM	–
CCCCCCNC(=O)CSC[C@H](NC(=O)[C@H](Cc1ccccc1)NC(=O)CNC(=O)[C@@H]1C[C@@H](O)CN1C(=O)[C@@H]1CCCN1C(=O)[C@H](CCCNC(=N)N)NC(=O)[C@H](N)CCCNC(=N)N)C(=O)N[C@H](Cc1ccccc1)C(=O)N[C@@H](CC(C)C)C(=O)N[C@@H](CCCNC(=N)N)C(=O)O [CP-0266] (H-[dR]RP[Hyp]GFC(X19)[dF]LR-OH)	–	–	Kb (Table H, monomer modifications, read-out: RAT UTERUS pA2 (converted)): 6.31 nM; % RECOVERY (Table H): 70%
